Measurements taken from the supplement of paper PMC10307832.

Tests used:
Assay in all cases: relative viability (nuclei count vs DMSO), 5 days (fraction); higher = more cells survive
VE-821 + Linsitinib = compound: CS(=O)(=O)c1ccc(-c2cnc(N)c(C(=O)Nc3ccccc3)n2)cc1 [VE-821] + C[C@]1(O)C[C@@H](c2nc(-c3ccc4ccc(-c5ccccc5)nc4c3)c3c(N)nccn32)C1 [Linsitinib] (partner 1 µM)
Outline: (§1)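 Cells from lung cancer lines were seeded into 1536-well plates and, one day later, dosed by pin tool. Treatments were either a single drug or a fixed dose of an anchor drug with five library-drug doses (not always all listed) in √10 steps. After 5 days, nuclei were stained in a one-step fixation (final 0.05% Triton X-100, 1% formaldehyde, 1 ug/ml Hoechst) and counted on 4× images, and relative viability is the treated-to-vehicle nuclei ratio, as the median of duplicate plates.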

Vismodegib + Decitabine = compound: CS(=O)(=O)c1ccc(C(=O)Nc2ccc(Cl)c(-c3ccccn3)c2)c(Cl)c1 [Vismodegib] + Nc1ncn([C@H]2C[C@H](O)[C@@H](CO)O2)c(=O)n1 [Decitabine] (partner 2 µM)
Outline: as §1

Vismodegib + Foretinib = compound: CS(=O)(=O)c1ccc(C(=O)Nc2ccc(Cl)c(-c3ccccn3)c2)c(Cl)c1 [Vismodegib] + COc1cc2c(Oc3ccc(NC(=O)C4(C(=O)Nc5ccc(F)cc5)CC4)cc3F)ccnc2cc1OCCCN1CCOCC1 [Foretinib] (partner 0.25 µM)
Outline: as §1

Ruxolitinib + Alpelisib = compound: N#CC[C@H](C1CCCC1)n1cc(-c2ncnc3[nH]ccc23)cn1 [Ruxolitinib] + Cc1nc(NC(=O)N2CCC[C@H]2C(N)=O)sc1-c1ccnc(C(C)(C)C(F)(F)F)c1 [Alpelisib] (partner 2 µM)
Outline: as §1

| Cell Line | relative viability (VE-821 + Linsitinib; first compound 0.08 µM) | relative viability (VE-821 + Linsitinib; first compound 0.253 µM) | relative viability (VE-821 + Linsitinib; first compound 0.8 µM) | relative viability (VE-821 + Linsitinib; first compound 2.53 µM) | relative viability (VE-821 + Linsitinib; first compound 8 µM) | relative viability (Vismodegib + Decitabine; first compound 0.08 µM) | relative viability (Vismodegib + Decitabine; first compound 0.253 µM) | relative viability (Vismodegib + Decitabine; first compound 0.8 µM) | relative viability (Vismodegib + Decitabine; first compound 2.53 µM) | relative viability (Vismodegib + Decitabine; first compound 8 µM) | relative viability (Vismodegib + Foretinib; first compound 0.08 µM) | relative viability (Vismodegib + Foretinib; first compound 0.253 µM) | relative viability (Vismodegib + Foretinib; first compound 0.8 µM) | relative viability (Vismodegib + Foretinib; first compound 2.53 µM) | relative viability (Vismodegib + Foretinib; first compound 8 µM) | relative viability (Ruxolitinib + Alpelisib; first compound 0.08 µM) | relative viability (Ruxolitinib + Alpelisib; first compound 0.253 µM) | relative viability (Ruxolitinib + Alpelisib; first compound 0.8 µM) | relative viability (Ruxolitinib + Alpelisib; first compound 2.53 µM) | relative viability (Ruxolitinib + Alpelisib; first compound 8 µM) |
| --- | --- | --- | --- | --- | --- | --- | --- | --- | --- | --- | --- | --- | --- | --- | --- | --- | --- | --- | --- | --- |
| NCI-H1915 | 1.09 | 1.16 | 1.13 | 1.18 | 0.972 | 0.265 | 0.264 | 0.236 | 0.245 | 0.258 | 1.02 | 1.06 | 1.05 | 1.05 | 1.08 | 1.06 | 1.04 | 1.11 | 1.04 | 0.966 |
| NCI-H358 | 0.812 | 0.777 | 0.723 | 1.09 | 0.469 | 0.21 | 0.228 | 0.21 | 0.256 | 0.225 | 0.677 | 0.629 | 0.797 | 0.68 | 0.782 | 0.787 | 0.913 | 0.867 | 0.65 | 0.554 |
| NCI-H23 | 0.56 | 0.639 | 0.485 | 0.706 | 0.37 | 0.362 | 0.321 | 0.329 | 0.323 | 0.358 | 0.925 | 0.899 | 1.01 | 0.593 | 1.2 | 0.611 | 0.726 | 0.801 | 0.72 | 0.535 |
| EMC-BAC-2 | 0.881 | 0.817 | 0.849 | 0.852 | 0.841 | 1 | 0.926 | 0.964 | 0.9 | 1.04 | 0.977 | 0.965 | 0.95 | 1 | 1.04 | 0.725 | 0.72 | 0.742 | 0.637 | 0.568 |
| NCI-H2009 | 1.23 | 1.19 | 1.12 | 1.22 | 1.23 | 0.363 | 0.377 | 0.366 | 0.416 | 0.344 | 1.23 | 1.23 | 1.29 | 1.19 | 1.23 | 1.11 | 1.17 | 1.12 | 1.01 | 0.903 |
| NCI-H460 | 1.06 | 0.657 | 0.693 | 0.239 | 0.0295 | 0.603 | 0.467 | 0.544 | 0.486 | 0.54 | 0.948 | 0.951 | 1.04 | 0.975 | 1.08 | 0.567 | 0.389 | 0.567 | 0.398 | 0.306 |
| ABC-1 | 0.819 | 0.699 | 0.567 | 0.798 | 0.423 | 1.06 | 1.01 | 0.999 | 1.2 | 1.01 | 0.894 | 1.15 | 1.14 | 1.08 | 1.23 | 1.08 | 1.09 | 1.17 | 1.03 | 0.855 |
| 201T | 0.975 | 0.941 | 0.956 | 0.968 | 0.818 | 0.826 | 0.813 | 0.869 | 0.848 | 0.846 | 1.17 | 1.04 | 0.951 | 1.08 | 1.08 | 1.11 | 1.11 | 1.27 | 1.39 | 1.33 |
